Reference: patent US9635879B2, “Sweetener” (Tate & Lyle Ingredients Americas LLC, priority 2013, dated 2017)
Marks after values point to notes of the source that are not given here.

How the values were obtained:
[1] = Round table sensory evaluation with test panelists: sucrose equivalent value (SEV) against sucrose reference samples; type: in vivo; settings: for Sweetness (mean SEV), two-way ANOVA, grouping (Duncan): second Sweetness line, superscripts = Duncan grouping, level of significance 5%
Description: Round table evaluations were performed with test panelists. Equal sweet 10 SEV concentrations in neutral pH water were made for allulose, fructose and sucralose, as well as a composition comprising allulose, fructose and sucralose. The components of the test compositions are described in the below tables. The mixed compositions were calculated using the Beidler mixture equation for the sweeteners. The Beidler mixture equation for sweeteners is as follows: […]
The concentration of each component in the mixture in ppm is divided by SEV (c/R) and is plotted against concentration, c. The slope of the linear regression is the maximum SEV (Rmax). The y-intercept of the linear regression multiplied by Rmax is the half-maximal sweetness concentration, 1/K. Rmax and 1/K are the two parameters used in the Beidler equation.
The equal-molar mixture was tested against reference samples for the panelists to determine SEV values. […] The test samples were served in 2 ounce (approximately 60 ml) soufflé cups coded with 3-digit codes at room temperature. A two minute wait period between samples was enforced. Water and unsalted crackers was available for the panelists to clear their palates before and during testing. EyeQuestion was used for ballot development and recording of results. Results were collected in EyeQuestion for calculating approximate SEV level of each test sample. The test products analyzed in this experiment are described below in Table 1.

[2] = times as sweet as sucrose; cited from earlier work
[3] = neutral pH water, room temperature, samples made to equal sweet 10 SEV, references 4-14% sucrose

Structure (SMILES)	Mean sucrose equivalent value (SEV) (Mean 1) [1, 3]	Sweetness (mean SEV), two-way ANOVA, grouping (Duncan) [1]	Sweetness relative to sucrose [2]	Sweetness (mean SEV), two-way ANOVA, level of significance (Duncan) ([1]; first Sweetness line, superscripts = level of significance (Duncan))	Median sucrose equivalent value (SEV) (Median 1) [1, 3]
O=C(CO)C(O)C(O)C(O)CO (stereo not drawn) [Allulose, allulose]	10.14	10.14^b-c	–	–	–
O=C(CO)[C@@H](O)[C@H](O)[C@H](O)CO [Fructose, fructose]	10.14	10.14^b-c	–	–	–
OC[C@H]1O[C@H](O[C@]2(CCl)O[C@H](CCl)[C@@H](O)[C@@H]2O)[C@H](O)[C@@H](O)[C@H]1Cl [Sucralose, sucralose]	9.286	9.29^c	approximately 600 times	9.29	10
